Data as given in publication PMC11963559, “Identification of novel thiazole derivatives as flaviviral protease inhibitors effective against Dengue (DENV2) and Japanese encephalitis viruses” (Antimicrobial Agents and Chemotherapy, 2025).

What was measured:
Assay type in all cases: cell-based
JEV [1] = assay: JEV progeny virus titer in BHK-21 supernatant (TCID50 assay); settings: BHK-21, read-out: IC50 of viral titer reduction (called TCID50 in the source)
Description: (§1) To this end, we assessed the antiviral activity of shortlisted compounds by evaluating their ability to inhibit progeny virus production. BHK-21 cells were infected with DENV2 and JEV (MOI: 0.1) in the presence of different concentrations of 3aq or 3au or with DMSO, and viral titer was determined in the supernatants harvested at 18 hpi. Compound 3aq caused the maximum reduction of viral titer showing TCID50 of 5.18 ± 0.87 and 2.29 ± 0.50 µM against DENV2 and JEV, respectively (Fig. 8B and D).
(§2) During DENV2 and JEV infection, the viral supernatant was collected and used in the TCID50 assay to determine the viral titer. Then, 3 × 10^4 BHK-21 cells per well were seeded in a 96-well cell culture microtiter plate the day before titration. The virus stock was diluted with infection media (DMEM + 2% FBS) to attain virus dilutions of 1 × 10^−2 to 6.4 × 10^−7 in 12 parallels, with the last column of the 96-well plate serving as virus-free cell control. On the day of the assay, when the cell had reached 90%–95% confluency, the growth medium was aspirated using a multichannel pipette, and 100 µL of virus inoculum of different dilutions was transferred to each well, keeping the last well only in infection media without virus. The cells were then incubated at 37 °C in a humidified 5% CO2 chamber. […] TCID50 was calculated using the Spearman and Karber methods.

DENV2 [2] = assay: DENV2 progeny virus titer in BHK-21 supernatant (TCID50 assay); settings: Dengue virus, DENV2, BHK-21, read-out: IC50 of viral titer reduction (called TCID50 in the source)
Description: as §1, §2

DENV2 [3] = assay: DENV2 replication in BHK-21 cells, viral RNA by qRT-PCR; settings: for SI, selectivity index (CC50/IC50): DENV2, BHK-21 cells, qRT-PCR IC50; for IC50: Dengue virus, DENV2, BHK-21, read-out: IC50, reduction of DENV2 viral RNA
Description: First, cytotoxic impact of these compounds was evaluated using MTT assay. […] Subsequently, we evaluated the effectiveness of these compounds in inhibiting DENV2 replication. BHK-21 cells were infected with the virus in presence of increasing concentration of these compounds, and harvested at 24 hpi. The virus replication rate was assessed by quantifying the copy number of viral genomic RNA using quantitative real-time PCR (qRT-PCR).
(§3) BHK-21 cells were seeded in a 24-well cell culture plate at a density of (0.25 × 10^6 cells/well) with regular growth medium containing DMEM + 10% FBS 1 day prior to infection in triplicate. Once the cells reached 85%–90% confluence, they were infected with DENV2 and JEV virus inoculum comprising DMEM + 2% FBS and 10 µM of the compound at an MOI of 0.1. Cells were incubated for 1.5 h at 37 °C with the virus-compound inoculum, with gentle rocking every 10 min to ensure even coverage and prevent the cellular monolayer from drying. Finally, the inoculum was replenished with fresh culture media comprising DMEM + 2% FBS and the compound, and then kept in an incubator in a humidified chamber at 37 °C until harvest (18 h). The cell culture supernatant was aspirated and washed with PBS, and the cellular monolayer was used for viral RNA isolation.
(§4) Total cellular RNA was extracted from BHK-21 cells using TRIzol reagent, according to the manufacturer’s instructions (Ambion Life Technologies, USA). RNA quantity and integrity were determined prior to use on a NanoDrop spectrophotometer (Thermo Fisher Scientific). Then, 1 µg of total RNA from each experimental sample was used to synthesize cDNA by reverse transcriptase (RT) by incubating the RNAs with Moloney murine leukemia virus (M-MuLV) RT, with specific RT primer, 5′-[…]-3′ (Tm = 63 °C), and deoxynucleoside triphosphates (dNTPs) (New England Biolabs) at 42 °C for 50 min, followed by inactivation at 70 °C for 15 min.
To quantify the viral RNA copy number, quantitative RT-PCR (qRT-PCR) was performed in duplicate using iTaq Universal SYBR Green Supermix (Bio-Rad). The cDNAs used for qPCR analysis were prepared using Power SYBR Green PCR Master Mix (Bio-Rad, #172–5125) in a QuantStudio5 Applied Biosystems real-time PCR system. For qPCR amplification of the JEV amplicon size of 202 bp, the sequences of the forward and reverse primer pairs used were 5′-[…]-3′ (Tm = 65 °C) and 5′-[…]-3′ (Tm = 63 °C) and for DENV amplicon of 163 bp, the sequences of the forward and reverse primer pair used were 5′-[…]-3′ (Tm = 61 °C) and 5′-[…]-3′ (Tm = 59 °C). […] Delta Ct for both control and compound-treated samples was determined and subsequently analyzed by determining the delta Ct to determine the mRNA expression of target genes in control vs treated samples.

JEV [4] = assay: JEV replication in BHK-21 cells, viral RNA by qRT-PCR; settings: for IC50: BHK-21, 24 h, read-out: IC50, reduction of JEV viral RNA
Description: Therefore, we sought to evaluate the efficacy of these compounds against JEV to assess their broad-spectrum anti-viral action against flaviviruses.
as §3, with “Finally, the inoculum was replenished with fresh culture media comprising DMEM + 2% FBS and the compound, and then kept in an incubator in a humidified chamber at 37 °C until harvest (18 h).” left out
as §4
To quantify the viral RNA copy number, quantitative RT-PCR (qRT-PCR) was performed in duplicate using iTaq Universal SYBR Green Supermix (Bio-Rad). The cDNAs used for qPCR analysis were prepared using Power SYBR Green PCR Master Mix (Bio-Rad, #172–5125) in a QuantStudio5 Applied Biosystems real-time PCR system. […] Delta Ct for both control and compound-treated samples was determined and subsequently analyzed by determining the delta Ct to determine the mRNA expression of target genes in control vs treated samples.

| Compound | IC50 (JEV [1]) [µM] | IC50 (DENV2 [2]) [µM] | SI, selectivity index (CC50/IC50) (DENV2 [3]) | IC50 (DENV2 [3]) [µM] | IC50 (JEV [4]) [µM] | SI, selectivity index (CC50/IC50) (JEV [4]; JEV, BHK-21 cells, qRT-PCR IC50) |
| --- | --- | --- | --- | --- | --- | --- |
| COc1ccc(-c2csc(N/N=C(\C)c3ccc(O)cc3)n2)cc1 [3aq] | 2.29 ± 0.5 | 5.18 ± 0.87 | 18.35 | 4.47 ± 0.41 | 1.03 ± 0.21 |  |
| COc1ccc(-c2csc(N/N=C(\C)c3cc(O)cc(O)c3)n2)cc1 [3au] | 2.72 ± 0.24 | 7.58 ± 1.02 | 10.38 | 7.38 ± 0.6 | 1.16 ± 0.16 | 67.8 |
